The test system of series [1] is HepG2 cells. The experiment in a line: Western blot analysis of liver cancer HepG2 cells. It counts as cell-based, human. The conditions noted are these: indicated concentration for 12 hr (FIG. 61). Background: In western blotting, separated proteins are transferred to a membrane and probed.
Another series has as its system HepG2 xenografts. The experiment in a line: HepG2 xenografts in nude mice. It counts as in vivo, mouse. On the procedure: FIGS. 69 and 70 show the analysis of nude mice injected with HepG2 cells, where the mice were treated with compound A1 (80 mg/kg) once every two days. The tumor volume was monitored and recorded. Tumors excised at day 14 were shown in FIG. 69 and weight in FIG. 70 (±SEM; **p<0.01).
BALB/c nude mice (7-8 weeks old) were injected subcutaneously with 100 μL HepG2 cells (2×10^6). For treatment, mice were administered with compound A1 (80 mg/kg) diluted in corn oil once every two days. Body weights and tumor sizes were measured every 2 days with tumor volumes (V) calculated by the formula of (width)^2×length/2. The mice were sacrificed after 14 days of treatment and tumors were removed for additional assessments. Isolation and culture of mouse primary liver tumor cells
Livers or transplanted tumor from mouse were fixed in 4% neutral buffered formalin phosphate (pH 7.0) for periods not exceeding 24 hr and were subsequently embedded in paraffin. They were sliced into 4-μm sections for H&E (hematoxylin and eosin) staining, immunofluorescence and for immunohistochemistry. To examine hepatocytes, H&E stained-liver sections were analyzed with an image analysis system. For immunostaining, liver sections or tumor sections were incubated with an anti-γ-tubulin (1:200 dilution), anti-pS10-H3 (1:200 dilution), anti-γ-H2AX (1:200 dilution), or cleaved-caspase-3 (1:100 dilution) antibody. Positive cells or areas were counted and measured, respectively, for at least 10 fields.

For series [2], the system named is HepG2 cells. Put plainly: Centrosome immunofluorescence in metaphase HepG2 cells. Format: cell-based, human. On the procedure:
Cells mounted on glass slides were fixed with methanol at −20° C. for 10 min, then permeabilized with 0.05% Triton X-100 in a PBS buffer for 8 min at 4° C., and blocked with 1% bovine serum in PBS for 30 min at room temperature, followed by incubation with primary antibodies at room temperature for 3 hr and detected by FITC-labeled anti-IgG (1:200), anti-goat IgG conjugated with Cy3 (1:200) at room temperature for 1 hr. The cells were costained with 40,6-diamidino-2-phenylindole (DAPI) (1:10,000 dilution) to visualize nuclei. The images were taken under a LEICA TCS SP8 confocal laser scanning microscope system or an LSM-510 confocal laser scanning microscope system.

For series [3], the system named is primary mouse liver tumor cells. Put plainly: Western blot analysis of primary mouse liver tumor cells. To be noted: 10 μM for 24 hr (FIG. 65). Format: cell-based. The procedure: Briefly, a liver from a mouse was removed and washed in 1×PBS. The tumor tissue was resected from the liver and transferred to 5 mL PBS/2% FBS. The tumor tissue was minced with fine sterile scissors into fragments, followed by addition of 5 mL pre-warmed 2 mg/mL collagenase type IV/dispase. After incubated for 30 min at 37° C., the tumor cells were filtered through a 70 μm cell strainer and spined at 1,000 rpm for 5 min at 4° C. The pellet containing the liver tumor cells was then resuspended in 5 mL of 1×RBC lysis buffer and incubated on ice for 5 min. The tumor cells were spined and washed by 1×PBS/2% FBS for 2-3 times. Finally, the tumor cells were resuspended with DMEM (10% FBS, 40 ng/mL EGF, 0.008 ng/mL IGF-II) and plated in culture dishes that were pre-coated with collagen.

In a further series the test system is HeLa cells. Put plainly: MT nucleation activity at the centrosomes in cold-treated, reheated HeLa cells. It counts as cell-based, human. To be noted: reheated at 37° C., 10 μM (FIG. 59).
The test system of a further series is B16F10 and 4T1 cells. The experiment in a line: Mitotic arrest and chromosome misalignment in B16F10 and 4T1 tumor cells. It counts as cell-based, mouse.
Series [4] has as its target T1, m-RXRα (p-RXRα) interaction with PLK1 (Homo sapiens, UniProt P19793).
T1 sequence (P19793 1-462): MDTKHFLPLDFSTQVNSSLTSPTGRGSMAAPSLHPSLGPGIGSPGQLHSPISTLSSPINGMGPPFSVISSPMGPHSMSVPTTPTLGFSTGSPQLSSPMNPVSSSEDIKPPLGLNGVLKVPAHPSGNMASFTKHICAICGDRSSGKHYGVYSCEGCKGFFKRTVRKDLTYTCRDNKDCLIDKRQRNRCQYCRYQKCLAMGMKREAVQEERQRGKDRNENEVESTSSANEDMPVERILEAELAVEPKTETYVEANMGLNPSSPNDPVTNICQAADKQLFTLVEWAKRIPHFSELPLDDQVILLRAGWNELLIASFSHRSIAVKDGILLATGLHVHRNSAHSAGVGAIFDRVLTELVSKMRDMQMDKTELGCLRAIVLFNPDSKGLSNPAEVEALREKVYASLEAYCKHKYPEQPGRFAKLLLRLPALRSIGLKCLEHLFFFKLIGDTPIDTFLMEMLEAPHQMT
Put plainly: Co-immunoprecipitation of Myc-RXRα with FLAG-PLK1 in HeLa cells. To be noted: 10 μM for 3 hr (FIG. 55).
Description: Briefly, cells were harvested in a lysis buffer (10 mM Tris, pH 7.4, 150 mM NaCl, 0.5% NP40, 5 mM ethylene diamine tetraacetic acid, containing protease inhibitors). Cell lysates were incubated with an antibody (1 μg) at 4° C. for 2 hr. Immunocomplexes were then precipitated with 30 μL of protein G-Sepharose beads. After an extensive washing with the lysis buffer, the beads were boiled in a sodium dodecyl sulfate (SDS) sample loading buffer and assessed by western blotting.
Cell lysates were boiled in an SDS sample loading buffer, resolved by 10% SDS-polyacrylamide gel electrophoresis (SDS-PAGE), and transferred to PVDF membranes. The membranes were blocked with 5% milk in a Tris buffered saline and TWEEN 20 (TBST)(10 mM Tris-HCl, pH 8.0, 150 mM NaCl, 0.05% TWEEN 20) for 1 hr at room temperature. After washing twice with TBST, the membranes were incubated with primary antibodies in TBST for 1 hr and then washed twice, probed with a horseradish peroxide-linked anti-immunoglobulin (1:5,000 dilution) for 1 hr at room temperature. After three washes with TBST, immunoreactive products were visualized using enhanced chemiluminescence reagents and autoradiography.

This is an account of results in patent US20240034785A1, “RXR-ALPHA BINDERS AND RXR-ALPHA/PLK1 MODULATORS” (NUCMITO PHARMACEUTICALS CO. LTD., priority 2020, published 2024).

For `COc1ccc(CC(=O)N/N=C/c2c(O)ccc3ccccc23)cc1` [Compound A1, (E)-N′-((2-hydroxynaphthalen-1-yl)methylene)-2-(4-methoxyphenyl)acetohydrazide], the “effect in p-RXRα-positive HepG2 liver cancer cells” value with HepG2 cells [1] was “potent effect”. Further, the “effects of compound A1 in normal liver tissues” value in the series on HepG2 xenografts (normal liver tissues of HepG2 xenograft mice (FIG. 71)) is “not observed in normal liver tissues”. In the series on HepG2 xenografts (normal tissues of kidney, intestine, spleen, and heart), the “mitotic arrest and DNA damage response in normal tissues” value is “no effect”. In the series with HepG2 xenografts (nude mice, 80 mg/kg once every two days, 14 days), the “signs of overt toxicities” value is on record as “without any signs of overt toxicities”. Also, the “growth of HepG2 tumor” value in the series on HepG2 xenografts (nude mice, subcutaneous HepG2 xenografts, 80 mg/kg in corn oil once every two days, 14 days (FIGS. 69 and 70)) is listed as “strongly inhibited the growth of HepG2 tumor”. Further, the “mitotic arrest, chromosome aberrations, DNA damage response, and caspase 3 activation in tumor cells” value in the series with HepG2 xenografts (tumor specimens from HepG2 xenograft (FIG. 71)) was “induction of mitotic arrest, chromosome aberrations, DNA damage response, and caspase 3 activation in tumor cells”. The centrosomal aberrations entry in the series with HepG2 cells [2] was “caused centrosomal aberrations”. Besides, the “level of PLK1-pT210 at the centrosome” value in the series on HepG2 cells [2] (HepG2 cells, 10 μM for 2 hr after release from TT block for 10 hr (FIG. 57)) was “reduced the level of PLK1-pT210”. Also, the “centrosome maturation (γ-tubulin at the centrosomes)” value in the series on HepG2 cells [2] (HepG2 cells, 10 μM for 2 hr after release from TT block for 10 hr (FIG. 58)) is “suppressed centrosome maturation”. Moreover, the “G2/M arrest, DNA damage response, and apoptosis” value in series [3] (primary liver cancer cells) was “induced G2/M arrest, DNA damage response, and apoptosis”. Besides, the “induction of mitotic arrest and apoptosis” value in series [3] (primary mouse liver tumor cells) is given as “observed”. Moreover, the “α-tubulin nucleation (MT nucleation activity at the centrosomes)” value with HeLa cells is recorded as “inhibited α-tubulin nucleation”. Moreover, in the series with B16F10 and 4T1 cells (10 μM for 2 hr (FIG. 67)), the “chromosomal aberrations (chromosome misalignment)” value was “chromosomal aberrations”. Besides, the mitotic arrest result in the series on B16F10 and 4T1 cells (10 μM for 6 hr (FIG. 66)) is recorded as “caused mitotic arrest”. Moreover, the “p-RXRα interaction with PLK1 (CoIP)” value in series [4] is reported as “inhibited”.
